Measured values as given in ChEMBL document CHEMBL1201862, “PubChem BioAssay data set” (2004).
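Each compound was tested at five concentrations against cells in 96-well plates for 48 hours. At the GI50, growth is halved.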 Activity calls are given as the source filed them. Cut-off read from the data, not from the text of the source: active = GI50 up to about 1.1 µM and inactive = higher. Numbered stars: 1 amine (or outer) side, 2 acyl side, 3 side chain; on linkers, the order of the positions; unused ones are H or OH. Bridge positions count the residues as written; N and C are the ends. Square brackets hold non-standard residues; d marks the D form. Peptide text beside a SMILES is read from it. I, II: the chains in the order shown. Actinocin(9to1) = Cc1c2oc3c(C)ccc(C(=O)[*:1])c3nc-2c(C(=O)[*:2])c(N)c1=O; NMeH = CN[CH](Cc1c[nH]cn1)C(=O)O; Sar = CNCC(=O)O

Key:
Assay in all cases: growth of human tumour cells (NCI), 48 h
786-0 = tested on: 786-0
A549 = tested on: A549
ACHN = tested on: ACHN
CAKI-1 = tested on: CAKI-1
COLO 205 = tested on: COLO 205
EKVX = tested on: EKVX
HCC 2998 = tested on: HCC 2998
HCT-15 = tested on: HCT-15
K562 = tested on: K562
MDA-MB-231 = tested on: MDA-MB-231
NCI-H460 = tested on: NCI-H460
SK-MEL-2 = tested on: SK-MEL-2
SN12C = tested on: SN12C
SNB-75 = tested on: SNB-75
T47D = tested on: T47D
TK-10 = tested on: TK-10
UACC-257 = tested on: UACC-257
UACC-62 = tested on: UACC-62
UO-31 = tested on: UO-31

Measured: GI50

COc1ccc2c(c1)nc1n2C(c2c(Cl)cccc2Cl)SC1 (configuration not stated)
inactive: 786-0 21.3 µM | A549 18 µM | ACHN 40.8 µM | CAKI-1 > 60.7 µM | COLO 205 4.63 µM | EKVX > 64.1 µM | HCC 2998 11.2 µM | K562 > 100 µM | MDA-MB-231 29.3 µM | NCI-H460 12.1 µM | SK-MEL-2 > 20.7 µM | SN12C > 57.5 µM | SNB-75 > 28.2 µM | T47D 16.9 µM | TK-10 > 58.6 µM | UACC-257 37.8 µM | UACC-62 18.4 µM | UO-31 46.5 µM
5.81 µM: HCT-15

Cc1c2oc3c(C)ccc(C(=O)NC4C(=O)NC(C(C)C)C(=O)N5CCCC5C(=O)N(C)CC(=O)N(C)C(Cc5cnc[nH]5)C(=O)OC4C)c3nc-2c(C(=O)NC2C(=O)NC(C(C)C)C(=O)N3CCCC3C(=O)N(C)CC(=O)N(C)C(Cc3cnc[nH]3)C(=O)OC2C)c(N)c1=O (configuration not stated) (I: TVP[Sar][NMeH] / II: TVP[Sar][NMeH]; ester I:1-I:C, II:1-II:C; linker I:N-II:N via Actinocin(9to1); configuration not given here)
inactive: 786-0 45.6 µM | A549 61.9 µM | ACHN 51.3 µM | CAKI-1 38.1 µM | COLO 205 31.3 µM | EKVX > 100 µM | HCC 2998 37.8 µM | K562 39.4 µM | MDA-MB-231 > 100 µM | NCI-H460 37.7 µM | SK-MEL-2 26.3 µM | SN12C 57 µM | SNB-75 66.8 µM | T47D 47.5 µM | TK-10 > 100 µM | UACC-257 > 100 µM | UACC-62 30.3 µM | UO-31 46.8 µM
> 100 µM: HCT-15

Cc1cccc(N(C(=O)Nc2ccc(Cl)c(Cl)c2)C2=NCC(C)S2)c1 (configuration not stated)
41.6 µM: HCT-15
inactive: 786-0 31.8 µM | A549 38.9 µM | ACHN 50.1 µM | CAKI-1 46.5 µM | COLO 205 44.7 µM | EKVX 84.7 µM | HCC 2998 36.8 µM | K562 24.8 µM | MDA-MB-231 29.8 µM | NCI-H460 41.9 µM | SK-MEL-2 23.8 µM | SN12C 59.3 µM | SNB-75 54.3 µM | T47D 9.84 µM | TK-10 23.8 µM | UACC-257 42.9 µM | UO-31 > 100 µM

CC1(C)C2CC(O)C1CCC2=O (configuration not stated)
> 100 µM: HCT-15
inactive: 786-0 > 100 µM | A549 > 100 µM | ACHN > 100 µM | CAKI-1 > 100 µM | COLO 205 > 100 µM | HCC 2998 > 100 µM | K562 > 100 µM | MDA-MB-231 > 100 µM | NCI-H460 > 100 µM | SK-MEL-2 > 100 µM | SN12C > 100 µM | SNB-75 > 100 µM | T47D > 100 µM | TK-10 > 100 µM | UACC-257 > 100 µM | UACC-62 > 100 µM | UO-31 > 100 µM

CC(=O)OC[C@@]12C[C@H]3C(=O)C(C)(C)C[C@H]3[C@]1(C)[C@@H](OC(C)=O)[C@]1(O)[C@H]([C@@H](OC(=O)c3ccccc3)[C@@H](C)[C@H]1OC(C)=O)[C@H]2OC(C)=O
inactive: 786-0 > 20 µM | ACHN > 20 µM | CAKI-1 > 20 µM | COLO 205 8.71 µM | EKVX > 20 µM | HCC 2998 > 20 µM | K562 6.87 µM | MDA-MB-231 > 20 µM | NCI-H460 6.19 µM | SK-MEL-2 > 20 µM | SN12C > 20 µM | SNB-75 > 20 µM | T47D > 20 µM | TK-10 > 20 µM | UACC-257 > 20 µM | UACC-62 > 20 µM | UO-31 > 20 µM
> 20 µM: HCT-15

COc1cc(C2S/C(=C/c3ccccc3)C(=O)N2Cc2ccccc2)cc(OC)c1OC (configuration not stated)
inactive: 786-0 41.1 µM | A549 27.3 µM | ACHN 64.7 µM | CAKI-1 36.8 µM | COLO 205 30.1 µM | EKVX 55.6 µM | HCC 2998 21 µM | K562 21.8 µM | MDA-MB-231 > 100 µM | SK-MEL-2 39.1 µM | SN12C 39.2 µM | SNB-75 18.5 µM | T47D 5.07 µM | TK-10 > 100 µM | UACC-257 > 100 µM | UACC-62 23.5 µM | UO-31 24.4 µM
40.1 µM: HCT-15

COC(=O)C(Cc1ccccc1I)C1=CCC2(CC1)OCCO2 (configuration not stated)
26.1 µM: HCT-15
inactive: 786-0 34.3 µM | A549 22.4 µM | ACHN 36.6 µM | CAKI-1 70 µM | COLO 205 28.4 µM | EKVX 47.6 µM | HCC 2998 31.6 µM | K562 27.3 µM | MDA-MB-231 54.5 µM | NCI-H460 33.3 µM | SK-MEL-2 25.5 µM | SNB-75 21.2 µM | T47D 12.3 µM | TK-10 31.6 µM | UACC-257 27.1 µM | UACC-62 20 µM | UO-31 23.3 µM

CCOC(=O)C1=CC(C)(C(=O)OCC)Nc2c(nc(N)[nH]c2=O)N1 (configuration not stated)
> 10 µM: HCT-15
inactive: 786-0 > 10 µM | A549 > 10 µM | ACHN > 10 µM | CAKI-1 > 10 µM | COLO 205 > 10 µM | EKVX > 10 µM | HCC 2998 > 10 µM | K562 > 10 µM | MDA-MB-231 > 10 µM | NCI-H460 > 10 µM | SK-MEL-2 > 10 µM | SN12C > 10 µM | SNB-75 > 10 µM | T47D > 10 µM | TK-10 > 10 µM | UACC-257 > 10 µM | UO-31 > 10 µM

CCCC(=O)Nc1cc(/C=C/C(=O)N2CC(CCl)c3ccc([N+](=O)[O-])cc32)n(C)c1 (configuration not stated)
> 100 µM: HCT-15
inactive: 786-0 62.4 µM | A549 58.3 µM | ACHN 50.9 µM | CAKI-1 57.5 µM | COLO 205 > 100 µM | EKVX > 100 µM | HCC 2998 57.7 µM | K562 > 100 µM | MDA-MB-231 21.6 µM | SK-MEL-2 > 100 µM | SN12C > 100 µM | SNB-75 > 100 µM | T47D 70 µM | TK-10 20 µM | UACC-257 > 100 µM | UACC-62 > 100 µM | UO-31 > 100 µM

CN1C=COC1N=C1CCCCC1 (configuration not stated)
inactive: 786-0 > 100 µM | A549 > 100 µM | ACHN > 100 µM | CAKI-1 3.74 µM | COLO 205 > 100 µM | EKVX > 100 µM | HCC 2998 > 100 µM | K562 > 100 µM | MDA-MB-231 > 100 µM | NCI-H460 > 100 µM | SK-MEL-2 > 100 µM | SN12C > 100 µM | SNB-75 41.4 µM | T47D > 100 µM | TK-10 > 100 µM | UACC-62 > 100 µM | UO-31 50.9 µM
> 100 µM: HCT-15
